{"source": "patent US5281710A", "about": "“Dynemicin analogs: synthesis, methods of preparation and use” (The Scripps Research Institute, priority 1992, dated 1994)", "key": {"[1]": {"test_system": "HL-60 promyeocytic leukemia cells", "assay": "Sulforhodamine B cytotoxicity, HL-60", "type": "cell-based", "conditions": "Homo sapiens, HL-60, HL-60; read-out: IC50", "outline": "(§1)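 Compounds and chimeras were screened against a panel of ten to twenty-five cancer cell lines plus seven \"normal\" cell preparations. Cytotoxicity was measured by sulforhodamine B staining, and IC50 was taken as the compound concentration required to kill one-half of the treated cells.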"}, "[2]": {"test_system": "tumor cells and \"normal\" cells", "assay": "Relative activity against tumor cells and normal cells", "type": "cell-based", "from_the_text": "In contrast, 100 percent of normal human mammary epithelial cells (HMEC) were viable at the same concentration."}, "[3]": {"test_system": "UCLA P-3 non-small cell lung carcinoma cells", "assay": "Sulforhodamine B cytotoxicity, UCLA-P3", "type": "cell-based, human", "conditions": "Homo sapiens, UCLA P-3, non small cell lung P-3; read-out: IC50", "experimental": "(§2) In addition to the screening already discussed, several of the before-described compounds and chimeras were screened against several or all of a panel of ten to twenty-five cancerous cell lines as target cells and seven \"normal\" cell preparations. This screening utilized a sulforhodamine B cytotoxidity assay as discussed below.\n(§3) IC50 values; i.e., the concentration of Compound required to kill one-half of the treated cells, were then calculated.\nUCLA P-3 Dr. D. Morton, University of California, […]"}, "H-358 lung cells": {"test_system": "H-358 lung cells", "assay": "Sulforhodamine B cytotoxicity, H-358", "type": "cell-based", "conditions": "Homo sapiens, NCI-H358", "experimental": "as §2, §3"}, "[4]": {"test_system": "EMT6 mammary tumor in Balb/c BYJ mice", "assay": "In vivo EMT6 mammary tumor in Balb/c BYJ mice", "design": "species or system mouse", "conditions": "10 mg/kg on days 1, 5 and 9", "experimental": "The data of FIG. 10 illustrate a further in vivo study using compound 153. Here, groups of 6-10 week old, female Balb/c BYJ mice (obtained from The Scripps Research Institute breeding colony, La Jolla, Calif.) (8 per group) were inoculated with 5×10^5 cells of the EMT6 tumor cell line, a mammary tumor. The mice were then treated with normal saline (control) or normal saline containing 10 mg/kg of Compound 153 (study) on days 1, 5 and 9 after the inoculation."}, "M-21 melanoma cells [5]": {"test_system": "M-21 melanoma cells", "assay": "Inhibition of [3H]leucine uptake (protein synthesis) in M-21 cells", "type": "cell-based, human", "conditions": "72 hours incubation", "experimental": "These determinations were made by standard tissue growth procedures using RPMI tissue culture medium supplemented with 10 percent fetal bovine serum plated at 10^4 cells in 100 μl of medium in 96-well tissue culture plates. The cells were permitted to adhere for 24 hours, and the dilutions of Compound 153 were added in 10 μl volumes and incubated for 72 hours at 37° C. in a humidified atmosphere containing five percent CO2. The plates were then washed three times with tissue culture medium and again incubated for 24 hours, as above. Each well received 1 μCi of ^3 H-labeled substrate, and after an additional 16 hours of incubation, cells were collected on glass fiber filters with a Skatron cell harvester. Finally, the filters were placed in Ecolume scintillation cocktail (ICN, Irvine, Calif.), and radioactivity was measured with a Beckeman scintillation counter. Incorporation of the ^3 H label was calculated as a percentage of untreated controls."}, "M-14 melanoma cells": {"test_system": "M-14 melanoma cells", "assay": "Sulforhodamine B cytotoxicity, M-14", "type": "cell-based", "conditions": "Homo sapiens, M14", "experimental": "as §2, §3\nUCLA M-14 Dr. R. Reisfeld of The Scripps Research"}, "Water solubility": {"assay": "Water solubility", "type": "physicochemical"}, "[6]": {"test_system": "Ovcar-3 ovarian carcinoma cells", "assay": "Sulforhodamine B cytotoxicity, Ovcar-3", "type": "cell-based", "conditions": "Homo sapiens, OVCAR-3, Ovcar-3; read-out: IC50", "outline": "as §1"}, "[7]": {"test_system": "Ovcar-4 ovarian carcinoma cells", "assay": "Sulforhodamine B cytotoxicity, Ovcar-4", "type": "cell-based", "conditions": "Homo sapiens", "experimental": "as §2, §3"}, "[8]": {"test_system": "P-388 mouse lymphoma cells", "assay": "Sulforhodamine B cytotoxicity, P-388", "type": "cell-based", "conditions": "Mus musculus, P388; P-388; read-out: IC50", "experimental": "as §2, §3"}, "[9]": {"test_system": "DNA in Molt-4 leukemia cells", "assay": "DNA strand breakage in Molt-4 cells (ethidium bromide fluorimetry)", "type": "cell-based", "experimental": "In another study, Molt-4 leukemia cells were treated with ethidium bromide, which led to uptake by DNA through intercalcation and consequent fluorescence. Exposure of those cells to Compound 153 (10 μM at 10^7 cells/ml) led to rapid DNA strand breakage as determined by fluorimetry, resulting in 95 percent destruction after four hours at 37° C. […] These observations implicate DNA strand cleavage as the direct cause of cell destruction in these studies."}, "U-87 UG astocytoma cells": {"test_system": "U-87 UG astocytoma cells", "assay": "Sulforhodamine B cytotoxicity, U-87", "type": "cell-based", "experimental": "as §2, §3"}, "[10]": {"test_system": "L-1210 mouse lymphoma cells", "assay": "Sulforhodamine B cytotoxicity, L-1210", "type": "cell-based", "conditions": "L1210", "experimental": "as §2, §3"}, "[11]": {"test_system": "H-322 lung carcinoma cells", "assay": "Sulforhodamine B cytotoxicity, H-322", "type": "cell-based", "conditions": "NCI-H322; H-322; read-out: IC50", "outline": "as §1"}, "[12]": {"test_system": "MOLT-4 (Leukemia) cell line", "assay": "cells", "type": "cell-based", "outline": "as §1"}, "TCAF cell line": {"test_system": "TCAF cell line", "assay": "Cytotoxicity, TCAF", "type": "cell-based", "experimental": "as §2, §3"}, "φX174 Form I DNA": {"test_system": "φX174 Form I DNA", "assay": "φX174 supercoiled DNA cleavage, agarose gel", "type": "biochemical"}, "[13]": {"assay": "Sulforhodamine B cytotoxicity, HMEC", "type": "cell-based, human", "conditions": "human, read-out: cell viability", "experimental": "as §2, §3\nHMEC Human mammary epithelial cells"}, "M-21 melanoma cells [14]": {"test_system": "M-21 melanoma cells", "assay": "Sulforhodamine B cytotoxicity, M-21", "type": "cell-based", "conditions": "Homo sapiens, M21", "experimental": "as §2, §3\nUCLA M-21 Institute, and originally obtained from […]"}, "H-522 lung cells": {"test_system": "H-522 lung cells", "assay": "Sulforhodamine B cytotoxicity, H-522", "type": "cell-based", "conditions": "Homo sapiens, NCI-H522", "experimental": "as §2, §3"}, "Chemical stability": {"assay": "Chemical stability", "type": "physicochemical"}}, "data": [{"compound": "O=C(OCCS(=O)(=O)c1ccccc1)N1c2ccc(OCCO)cc2C23OC24CCCC3C#C/C=C\\C#CC14", "note": "(stereo not shown) [Compound 153]", "values": [{"measurement": "IC50", "setting": "[1]", "value": 0.036, "unit": "nM"}, {"measurement": "selectivity between normal and cancer cells (qualitative)", "setting": "[2]", "value": "relative selectivity for tumor cell lines as opposed to normal, untransformed cells"}, {"measurement": "times more active against tumor cells than against normal cells", "setting": "[2]; except for the three melanoma cell lines", "value": "10^1 -10^8 times"}, {"measurement": "IC50", "setting": "[3]", "value": 98, "unit": "nM"}, {"measurement": "IC50", "setting": "H-358 lung cells", "value": 200, "unit": "nM"}, {"measurement": "tumor growth of treated tumors", "setting": "[4]", "value": "much slower, and almost linear"}, {"measurement": "tumor volume vs control", "setting": "[4]; day 8", "value": "slight difference in the average volume of the tumors, with the study group having a lower tumor burden"}, {"measurement": "control group's average tumor volume relative to study group", "setting": "[4]; day 20", "value": "about seven"}, {"measurement": "inhibition of [3H]leucine uptake (protein synthesis)", "setting": "M-21 melanoma cells [5]", "value": "severely impair"}, {"measurement": "IC50", "setting": "M-14 melanoma cells", "value": 1600, "unit": "nM"}, {"measurement": "water solubility", "setting": "Water solubility", "value": "increased solubility of Compound 153 in water compared to the other enediyne compounds"}, {"measurement": "IC50", "setting": "[6]", "value": 780, "unit": "nM"}, {"measurement": "IC50", "setting": "[7]", "value": 780, "unit": "nM"}, {"measurement": "IC50", "setting": "[8]", "value": 4.6, "unit": "nM"}, {"measurement": "DNA strand breakage (destruction)", "setting": "[9]; 10 μM at 10^7 cells/ml, four hours at 37° C.", "value": 95, "unit": "%"}, {"measurement": "delay of cell death relative to DNA strand breakage", "setting": "[9]; 10 μM, Molt-4 cells", "value": "two"}, {"measurement": "IC50", "setting": "U-87 UG astocytoma cells", "value": 780, "unit": "nM"}, {"measurement": "IC50", "setting": "[10]", "value": 1.3, "unit": "nM"}, {"measurement": "IC50", "setting": "[11]", "value": 390, "unit": "nM"}, {"measurement": "viability at 0.01 µM", "setting": "[12]; Homo sapiens, 72 h, 10^-8 M, Molt-4 tumor cells", "value": 20, "unit": "%"}, {"measurement": "relative potency (qualitative)", "setting": "[12]; Molt-4", "value": "highest potency amongst all of the agents assayed against the Molt-4 leukemia cell line"}, {"measurement": "IC50", "setting": "TCAF cell line", "value": 1.1, "unit": "nM"}, {"measurement": "DNA cleavage", "setting": "φX174 Form I DNA; 1.0 mM, 24 hours, acidic pH", "value": "no DNA cleavage activity"}, {"measurement": "DNA cleavage", "setting": "φX174 Form I DNA; 1.0 mM, 24 hours, pH 7.0 and higher", "value": "some DNA cleavage activity"}, {"measurement": "DNA cleavage", "setting": "φX174 Form I DNA; pH 8.5, 24 or 48 hours, 37° C.", "value": "strong DNA cleavage activity"}, {"measurement": "viability at 72 h", "setting": "[13]; 10^-6 to 10^-7 M", "value": 100, "unit": "%"}, {"measurement": "viability at 72 h, 0.01 µM", "setting": "[13]; 10^-8 M", "value": 100, "unit": "%"}, {"measurement": "IC50", "setting": "M-21 melanoma cells [14]", "value": 1600, "unit": "nM"}, {"measurement": "IC50", "setting": "H-522 lung cells", "value": 98, "unit": "nM"}, {"measurement": "chemical stability", "setting": "Chemical stability", "value": "decompose cleanly to form phenyl vinyl sulfone and the corresponding free amine enediyne Compound 153a"}, {"measurement": "time remaining intact", "setting": "Chemical stability; pH 7.0 phosphate buffer (100 mM), 37° C.", "value": "≥ 1.5", "unit": "h"}]}]}
